Reference: patent US4224343A, “Process and composition for decreasing blood serum prolactin levels” (Massachusetts Institute of Technology, priority 1979, dated 1980)
Where “and” joins values, the source holds several entries; their conditions need not be identical. Equal values may be shown once. Read-outs that look alike come from different tables or passages of the source.

Tests used:
brain dopamine release = test: Accumulation of HVA in corpora striata of rats given haloperidol or probenecid after tyrosine (FIG. 2); conditions: for striatal HVA concentration: tyrosine 100 mg/kg or diluent, 20 min later haloperidol 2 mg/kg or probenecid 200 mg/kg i.p., sacrificed 70 min after second injection, corpora striata
Protocol: Male, 150 to 200 g Sprague-Dawley rats (Charles River Breeding Laboratories, Wilmington, MA) were exposed to light (Vita-Lite, Duro-Test Co., North Bergen, N.J.) between 9 AM and 9 PM daily and allowed access to Big Red Rat Chow (Charles River Breeding Laboratories) and water ad limitum. Drugs were injected intraperitoneally at a volume of 2 ml/kg body weight. […] Control animals received the appropriate diluents. […] Brains were quickly removed, and the striata were dissected out (Glowinski and Iverson, 1966), frozen on dry ice, and subsequently assayed for HVA. Tyrosine was assayed in homogenates of the remaining brain (Waalkes and Udenfriend, 1957).

[1] = test system: Norepinephrine synthesis and turnover in brain neurons; test: Accumulation of brain MOPEG-SO4 after probenecid administration and pretreatment with tyrosine; conditions: for Brain MOPEG-SO4 Level / Brain Tyrosine Level: killed 60 min after second injection, whole brain, mean ± SEM; for effect on brain MOPEG-SO4: substance given alone, versus diluent; for effect on brain tyrosine levels: tyrosine 100 mg/kg i.p., probenecid 400 mg/kg, two-way analysis of variance
Text: (§1) Male Sprague-Dawley rats (Charles River Breeding Laboratories, Wilmington, MA) weighing 150 g were housed in hanging cages (6-8 per cage), given ad libitum access to tap water and a 26% protein diet (Charles River Rat-Mouse-Hamster Maintenance Formula 24RF), and maintained under light (300 microwatts/cm^2; Vita-Lite, Duro-Test Corp., North Bergen, N.J.) between 8 AM and 8 PM daily. Rats used for diet experiments were fasted overnight and then allowed to consume the experimental diet starting at 10 AM. Diets of different compositions were prepared in agar gel ([…] of water) as described by Gibson et al., Biochem. Pharmacol., 26, 1137-1142 (1977). All amino acids and drugs were injected intraperitoneally.
(§2) Norepinephrine synthesis and turnover in brain neurons were estimated by measuring the rate of accumulation of MOPEG-SO4 after probenecid administration or exposure to a cold environment. […] An aliquot of each homogenate (in 0.15 M ZnSO4) was first assayed for tyrosine by the method of Waalkes and Undenfriend, J. Lab. Clin. Med., 50, 733-736 (1957). An equal volume of 0.15 M barium hydroxide was then added to the remaining homogenate, which was rehomogenized (Polytron, Brinkman Instruments, N.Y.), centrifuged and assayed for MOPEG-SO4 by the method of Meek and Neff above.
Tyrosine (Grand Island Biological Co., Long Island, N.Y.) and probenecid (Sigma Chemical Co., St. Louis, MO), which are poorly soluble in water, were dissolved in dilute NaOH; the solutions were then buffered to pH 7.4 with hydrochloric acid and brought to a known volume with saline. This yielded a fine suspension that was suitable for injection.
In each of 3 experiments, groups of 4-6 rats were injected with either a
dose of tyrosine (100 mg/kg, i.p.) known to accelerate brain dopa
synthesis or its diluent and, 30 min. later, with probenecid (400 mg/kg,
[…].) or its diluent. Animals were killed 60 min. after the second
injection, and their whole brains were analyzed for tyrosine and […]

Serum Prolactin = test: Serum prolactin by radioimmunoassay in reserpine-treated rats; assay type: in vivo, rat
Protocol: Groups of 4 male rats received reserpine (2.5 mg/kg/day, divided into two equal doses each day) intraperitoneally for four days. On day 5, in the morning, no reserpine was administered, but instead half of the animals received tyrosine (200 mg/kg) or the vehicle (saline), and were killed two hours later. Sera were collected and assayed by radioimmunoassay for prolactin.

[2] = test system: Norepinephrine synthesis and turnover in brain neurons; test: Brain tyrosine and MOPEG-SO4 in rats exposed to cold (4° C.) after amino acid injection (FIG. 1)
Text: as §1, §2
In experiments on stress produced by exposure to cold, animals received the more soluble ethyl-ester form of tyrosine (J. T. Baker, Phillipsburg, N.J.), instead of tyrosine itself, to raise brain tyrosine levels. Data were analyzed by one-way or two-way analysis of variance.
Placing the rats in a cold environment (4° C.) increases norepinephrine turnover; this accelerates the formation of both norepinephrine itself and its metabolite, MOPEG-SO4, in brain neurons. The rats were exposed to cold to determine whether treatments that changed brain tyrosine levels could influence the rate at which the brain accumulates MOPEG-SO4 in rats exposed to cold stress and not given probenecid (FIG. 1).
The relationship shown in FIG. 1 was obtained as follows: Groups of rats were injected intraperitoneally with valine (200 mg/kg), an amino acid that competes with tyrosine for uptake into the brain (8), or with tyrosine (125 mg/kg of the ethyl ester) or saline; 30 min. later they were placed in single cages in a cold (4° C.) environment. After 1 hr., all animals were killed, and their whole brains were analyzed for tyrosine and MOPEG-SO4. Control animals were injected with saline and left at room temperature (22° C.), also in a single cages, for 90 min. Each point represents the tyrosine and MOPEG-SO4 levels present in a single brain. Data were pooled from several experiments. […] In FIG. 1, the symbols are as follows: closed circles, animals pretreated with valine; open circles, animals pretreated with saline; closed squares, animals pretreated with tyrosine.

[3] = target: T1, Striatal Tyrosine Hydroxylase (Rattus norvegicus, UniProt P04177); test: Kms of striatal tyrosine hydroxylase after in vivo pretreatment; assay type: biochemical; conditions: for Km: striatal homogenate of treated rats
T1 construct: 10,000 g supernatant of Triton X-100 homogenate of rat corpus striatum
T1 sequence (P04177 whole entry): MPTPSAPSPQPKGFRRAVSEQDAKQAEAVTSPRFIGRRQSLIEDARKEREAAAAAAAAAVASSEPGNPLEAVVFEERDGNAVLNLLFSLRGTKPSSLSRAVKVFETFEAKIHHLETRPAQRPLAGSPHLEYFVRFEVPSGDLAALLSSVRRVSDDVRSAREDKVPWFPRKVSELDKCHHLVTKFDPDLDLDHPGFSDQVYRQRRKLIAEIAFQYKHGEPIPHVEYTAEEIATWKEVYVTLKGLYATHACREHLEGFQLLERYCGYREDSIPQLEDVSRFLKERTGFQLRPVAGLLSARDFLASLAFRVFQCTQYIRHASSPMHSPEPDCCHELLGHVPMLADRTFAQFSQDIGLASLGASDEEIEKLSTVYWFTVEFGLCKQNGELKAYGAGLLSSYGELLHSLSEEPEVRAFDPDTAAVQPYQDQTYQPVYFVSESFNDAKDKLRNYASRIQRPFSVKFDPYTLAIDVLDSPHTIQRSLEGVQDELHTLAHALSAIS
Protocol: Corpora striata were homogenized in 10 volumes of 0.05 M Tris-acetate buffer (pH 6.0), containing 0.2 percent Triton X-100 (Harleco, Philadelphia, PA). The homogenates were centrifuged for 10 min. at 10,000 g, and the supernatant fluids were collected for assay (Coye, 1972). The assay medium contained, in a total volume of 110 μl: 50 μl of a supernatant fluid; 65 nmoles of DMPH4 (2-amino-4-hydroxy-6,7-dimethyl-5,6,7,8-tetrahydropteridine hydrochloride [synthetic cofactor obtained from Calbiochem, San Diego, CA]); 29 nanomoles of pyridoxal phosphate; 4 nanomoles of 2-mercaptoethanol; 240 units of catalase; 0.01 millimoles phosphate buffer (pH 6.2); and 10 μl of aromatic L-amino acid decarboxylase prepared from hog kidneys (Coyle, 1972). Samples were preincubated for 2 min. at 27° C.
The assay was stopped by the addition of 0.5 ml of 10 percent trichloroacetic acid. The acidified medium was then shaken for 2 hours to recover the ^14 CO2, which was trapped by folded filter paper strips placed in 0.2 ml of NCS tissue solubilizer (Amersham/Searle, Arlington Heights, IL). The strips were then transferred to scintillation vials containing 10 ml of Aquasol (New England Nuclear, Boston, MA), and their radioactivity was counted.

[4] = pretreatment (tyrosine 100 mg/kg i.p. or diluent), 30 min later probenecid 400 mg/kg
[5] = tyrosine 125 mg/kg of the ethyl ester i.p., cold (4° C.) 1 hr
[6] = pretreatment tyrosine 100 mg/kg i.p., 30 min later diluent

CCCN(CCC)S(=O)(=O)c1ccc(C(=O)O)cc1 [Probenecid, probenecid, reference compound]
striatal HVA concentration (brain dopamine release): 1.30 ± 0.10 µg/g | Brain MOPEG-SO4 Level [1, 4]: 175 ng/g and 175 ± 6 ng/g | effect on brain MOPEG-SO4 [1]: significantly raised | effect on brain tyrosine levels [1]: failed to modify

N[C@@H](Cc1ccc(O)cc1)C(=O)O [Tyrosine, tyrosine]
potentiation of the accumulation of HVA in striata of haloperidol-treated rats (brain dopamine release; tyrosine 100 mg/kg 20 min before haloperidol 2 mg/kg): 59% | effect on HVA levels in animals given probenecid (brain dopamine release; tyrosine 100 mg/kg 20 min before probenecid 200 mg/kg): failed | Serum Prolactin (Serum Prolactin; male rats, reserpine […] i.p. for four days, day 5 tyrosine 200 mg/kg, killed two hours later, mean ± standard error): 44 ± 2 ng/mL | effect on serum prolactin levels (Serum Prolactin; reserpine-pretreated rats, tyrosine 200 mg/kg): lowers serum prolactin levels | brain tyrosine levels ([2]; i.p. injection (tyrosine 125 mg/kg of the ethyl ester; valine 200 mg/kg) 30 min before 1 hr in cold (4° C.), whole brain): 24.6 µg/g | brain MOPEG-SO4 levels ([2]; tyrosine 125 mg/kg of the ethyl ester i.p. 30 min before 1 hr in cold (4° C.), whole brain): 193 ng/g | rise in brain MOPEG-SO4 versus saline-injected animals [2, 5]: 70% | rise in brain tyrosine levels versus saline-injected animals [2, 5]: about 80% | Brain MOPEG-SO4 Level [1, 4]: 203 ng/g and 203 ± 8 ng/g | Brain Tyrosine Level [1, 4]: 24.7 ± 1.3 µg/g | Brain MOPEG-SO4 Level [1, 6]: 127 ± 2 ng/g | Brain Tyrosine Level [1, 6]: 23.3 ± 1.5 µg/g | effect on brain MOPEG-SO4 [1]: no effect | effect of tyrosine pretreatment on the probenecid-induced rise in MOPEG-SO4 ([1]; tyrosine 100 mg/kg i.p. 30 min before probenecid 400 mg/kg): significantly enhanced | effect on brain tyrosine levels [1]: significantly raised | effect of prior administration on the Kms of tyrosine hydroxylase for tyrosine or DMPH4 in vitro ([3]; tyrosine 100 mg/kg in vivo): failed to affect

CC(C)[C@H](N)C(=O)O [valine, reference compound]
effect on brain tyrosine or MOPEG-SO4 levels ([2]; valine 200 mg/kg i.p., cold (4° C.) 1 hr): failed, in this study, to cause significant alterations

O=C(CCCN1CCC(O)(c2ccc(Cl)cc2)CC1)c1ccc(F)cc1 [Haloperidol, haloperidol]
striatal HVA concentration (brain dopamine release): 2.00 ± 0.10 µg/g | Km ([3]; DMPH4 concentrations 0.1 to 0.5 mM, read-out: Km for DMPH4): 130 ± 10 µM | Km ([3]; tyrosine concentrations 0.125-1.0 mM, read-out: Km for tyrosine): 48.1 ± 1.9 µM
